Experimental data as given in patent US20250268903A1, “RXFP1 AGONISTS” (BRISTOL-MYERS SQUIBB COMPANY, priority 2021, published 2025).

Molecular target: T1, human RXFP1 (Homo sapiens, UniProt Q9HBX9)
T1 construct: expressed in transfected cells
T1 sequence (Q9HBX9 1-757): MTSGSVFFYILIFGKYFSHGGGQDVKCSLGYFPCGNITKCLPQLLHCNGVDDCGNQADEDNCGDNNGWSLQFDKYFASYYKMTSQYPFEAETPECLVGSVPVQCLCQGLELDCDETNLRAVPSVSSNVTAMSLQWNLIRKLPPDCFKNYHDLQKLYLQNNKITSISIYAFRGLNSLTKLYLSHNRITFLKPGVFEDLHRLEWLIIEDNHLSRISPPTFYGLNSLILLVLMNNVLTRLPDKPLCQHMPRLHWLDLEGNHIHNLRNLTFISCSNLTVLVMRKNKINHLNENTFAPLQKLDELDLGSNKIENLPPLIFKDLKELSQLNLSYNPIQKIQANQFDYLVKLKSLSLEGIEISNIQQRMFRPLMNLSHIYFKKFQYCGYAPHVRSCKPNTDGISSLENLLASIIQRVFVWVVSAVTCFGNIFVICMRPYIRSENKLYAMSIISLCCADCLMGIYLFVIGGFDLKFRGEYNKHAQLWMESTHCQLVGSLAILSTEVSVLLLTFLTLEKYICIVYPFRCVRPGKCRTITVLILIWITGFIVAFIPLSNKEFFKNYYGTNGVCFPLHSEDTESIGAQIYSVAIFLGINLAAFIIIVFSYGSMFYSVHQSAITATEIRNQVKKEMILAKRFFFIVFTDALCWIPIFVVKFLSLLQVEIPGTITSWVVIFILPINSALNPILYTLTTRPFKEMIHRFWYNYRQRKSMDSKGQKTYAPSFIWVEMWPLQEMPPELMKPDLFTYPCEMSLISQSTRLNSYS
Test: hRXFP1 HEK293 cAMP assay (HTRF)
Type: cell-based
Settings: HEK293 cells stably expressing human RXFP1, 30 min at room temperature
Summary of the method: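 HEK293 cells stably expressing human RXFP1 were suspended in HBSS (Ca/Mg) with 20 mM HEPES, 0.05% BSA and 0.5 mM IBMX, then treated with compounds (0.010 nM–50 μM, 2% DMSO final) for 30 min at room temperature. Intracellular cAMP was measured by HTRF, and potency was derived from 4-parameter logistic fits.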

EC50	SMILES
69.8 nM	COc1ccc(C(=O)N(C)C(C)(C)C)cc1C(=O)N[C@H]1[C@@H](C(=O)Nc2ccc(F)c(C(F)(F)F)c2)[C@H]2CC[C@@H]1/C2=C\C1CC1 [Example 241, N1-tert-butyl-N3-[(1R,2R,3S,4R,7Z)-7-(cyclopropyl-methylidene)-3-{[4-fluoro-3-(trifluoromethyl)phenyl]carbamoyl}bicyclo[2.2.1]heptan-2-yl]-4-methoxy-N1-methylbenzene-1,3-dicarboxamide]
261 nM	COc1ccc(C(=O)N2CCS(=O)(=O)CC2)cc1C(=O)N[C@H]1[C@@H](C(=O)Nc2ccc(F)c(C(F)(F)F)c2)[C@H]2CC[C@@H]1/C2=C\C1CC1 [Example 242, (1R,2S,3R,4R,7Z)-7-(cyclopropyl-methylidene)-3-[5-(1,1-dioxo-1λ.^6-thiomorpholine-4-carbonyl)-2-methoxybenzamido]-N-[4-fluoro-3-(trifluoromethyl)phenyl]bicyclo [2.2.1] heptane-2-carboxamide]
11.9 nM	COc1ccc(C(=O)N2CC3(C2)CS(=O)(=O)C3)cc1C(=O)N[C@H]1[C@@H](C(=O)Nc2ccc(F)c(C(F)(F)F)c2)[C@H]2CC[C@@H]1/C2=C\C1CC1 [Example 243, (1R,2S,3R,4R,7Z)-7-(cyclopropyl-methylidene)-3-(5-{2,2-dioxo-2λ^6-thia-6-azaspiro[3.3]heptane-6-carbonyl}-2-methoxybenzamido)-N-[4-fluoro-3-(trifluoromethyl)phenyl]bicyclo[2.2.1] heptane-2-carboxamide]
11 nM	COc1ccc(C(=O)N2CC[C@@H](O)C2)cc1C(=O)N[C@H]1[C@@H](C(=O)Nc2ccc(F)c(C(F)(F)F)c2)[C@H]2CC[C@@H]1/C2=C\C1CC1 [Example 244, (1R,2S,3R,4R,7Z)-7-(cyclopropyl-methylidene)-N-[4-fluoro-3-(trifluoromethyl)phenyl]-3-{5-[(3R)-3-hydroxypyrrolidine-1-carbonyl]-2-methoxybenzamido} bicyclo[2.2.1]heptane-2-carboxamide]
37.8 nM	COc1ccc(C(=O)N2CC[C@@H](CO)C2)cc1C(=O)N[C@H]1[C@@H](C(=O)Nc2ccc(F)c(C(F)(F)F)c2)[C@H]2CC[C@@H]1/C2=C\C1CC1 [Example 245, (1R,2S,3R,4R,7Z)-7-(cyclopropyl-methylidene)-N-[4-fluoro-3-(trifluoromethyl)phenyl]-3-{5-[(3R)-3-(hydroxymethyl)pyrrolidine-1-carbonyl]-2-methoxybenzamido} bicyclo[2.2.1]heptane-2-carboxamide]
13.7 nM	COc1ccc(C(=O)N2CCC3(CC2)COC3)cc1C(=O)N[C@H]1[C@@H](C(=O)Nc2ccc(F)c(C(F)(F)F)c2)[C@H]2CC[C@@H]1/C2=C\C1CC1 [Example 246, (1R,2S,3R, 4R,7Z)-7-(cyclopropyl-methylidene)-N-[4-fluoro-3-(trifluoromethyl)phenyl]-3-(2-methoxy-5-{2-oxa-7-azaspiro[3.5]nonane-7-carbonyl}benzamido) bicyclo[2.2.1] heptane-2-carboxamide]
27.2 nM	COc1ccc(C(=O)N2CCC(S(C)(=O)=O)CC2)cc1C(=O)N[C@H]1[C@@H](C(=O)Nc2ccc(F)c(C(F)(F)F)c2)[C@H]2CC[C@@H]1/C2=C\C1CC1 [Example 247, (1R,2S,3R,4R,7Z)-7-(cyclopropylmethyl-idene)-N-[4-fluoro-3-(trifluoromethyl)phenyl]-3-[5-(4-methanesulfonyl-piperidine-1-carbonyl)-2-methoxybenzamido] bicyclo[2.2.1] heptane-2-carboxamide]
128 nM	COc1ccc(C(=O)N2CC3(COC3)C2)cc1C(=O)N[C@H]1[C@@H](C(=O)Nc2ccc(F)c(C(F)(F)F)c2)[C@H]2CC[C@@H]1/C2=C\C1CC1 [Example 248, (1R,2S,3R,4R,7Z)-7-(cyclopropylmethyl-idene)-N-[4-fluoro-3-(trifluoromethyl)phenyl]-3-(2-methoxy-5-{2-oxa-6-azaspiro[3.3]heptane-6-carbonyl}benzamido) bicyclo[2.2.1]heptane-2-carboxamide]
432 nM	COc1ccc(C(=O)N2C[C@H]3CNC[C@H]3C2)cc1C(=O)N[C@H]1[C@@H](C(=O)Nc2ccc(F)c(C(F)(F)F)c2)[C@H]2CC[C@@H]1/C2=C\C1CC1 [Example 249]
34.9 nM	COc1ccc(C(=O)N(C)CCS(C)(=O)=O)cc1C(=O)N[C@H]1[C@@H](C(=O)Nc2ccc(F)c(C(F)(F)F)c2)[C@H]2CC[C@@H]1/C2=C\C1CC1 [Example 250, N3-[(1R,2R,3S,4R,7Z)-7-(cyclopropyl-methylidene)-3-{[4-fluoro-3-(trifluoromethyl)phenyl]carbamoyl}bicyclo[2.2.1]heptan-2-yl]-N1-(2-methane-sulfonylethyl)-4-methoxy-N1-methylbenzene-1,3-dicarboxamide]
44 nM	COc1ccc(C(=O)N2CC(O)C2)cc1C(=O)N[C@H]1[C@@H](C(=O)Nc2ccc(F)c(C(F)(F)F)c2)[C@H]2CC[C@@H]1/C2=C\C1CC1 [Example 251, (1R,2S,3R,4R,7Z)-7-(cyclopropylmethyl-idene)-N-[4-fluoro-3-(trifluoromethyl)phenyl]-3-[5-(3-hydroxyazetidine-1-carbonyl)-2-methoxybenzamido] bicyclo[2.2.1]heptane-2-carboxamide]
4.16 nM	COc1ccc(C(=O)N2CCC(S(C)(=O)=O)C2)cc1C(=O)N[C@H]1[C@@H](C(=O)Nc2ccc(F)c(C(F)(F)F)c2)[C@H]2CC[C@@H]1/C2=C\C1CC1 (stereo partly drawn) [Example 252, (1R,2S,3R,4R,7Z)-7-(cyclopropyl-methylidene)-N-[4-fluoro-(trifluoromethyl)phenyl]-3-[5-(3-methanesulfonyl-pyrrolidine-1-carbonyl)-2-methoxybenzamido] bicyclo[2.2.1] heptane-2-carboxamide]
11.9 nM	COc1ccc(C(=O)NCCS(C)(=O)=O)cc1C(=O)N[C@H]1[C@@H](C(=O)Nc2ccc(F)c(C(F)(F)F)c2)[C@H]2CC[C@@H]1/C2=C\C1CC1 [Example 253, N3-[(1R,2R, 3S,4R,7Z)-7-(cyclopropylmethyl-idene)-3-{[4-fluoro-3-(trifluoromethyl)phenyl]carbamoyl}bicyclo[2.2.1]heptan-2-yl]-N1-(2-methanesulfonylethyl)-4-methoxybenzene-1,3-dicarboxamide]
54 nM	COc1ccc(C(=O)N2CC[C@H](O)C2)cc1C(=O)N[C@H]1[C@@H](C(=O)Nc2ccc(F)c(C(F)(F)F)c2)[C@H]2CC[C@@H]1/C2=C\C1CC1 [Example 254, (1R,2S,3R, 4R,7Z)-7-(cyclopropyl-methylidene)-N-[4-fluoro-3-(trifluoromethyl)phenyl]-3-{5-[(3S)-3-hydroxypyrrolidine-1-carbonyl]-2-methoxybenzamido} bicyclo[2.2.1] heptane-2-carboxamide]
73.4 nM	COc1ccc(C(=O)N2CCN(CC(F)F)CC2)cc1C(=O)N[C@H]1[C@@H](C(=O)Nc2ccc(F)c(C(F)(F)F)c2)[C@H]2CC[C@@H]1/C2=C\C1CC1 [Example 255, (1R,2S,3R,4R,7Z)-7-(cyclopropyl-methylidene)-3-{5-[4-(2,2-difluoroethyl)piperazine-1-carbonyl]-2-methoxybenzamido}-N-[4-fluoro-3-heptane-2-(trifluoromethyl)phenyl]bicyclo [2.2.1] carboxamide]
12.6 nM	COc1ccc(C(=O)N2CCC(S(C)(=O)=O)C2)cc1C(=O)N[C@H]1[C@@H](C(=O)Nc2ccc(F)c(C(F)(F)F)c2)[C@H]2CC[C@@H]1/C2=C\C1CC1 (stereo partly drawn) [Example 256]
90.8 nM	COc1ccc(C(=O)N2CCC(S(C)(=O)=O)C2)cc1C(=O)N[C@H]1[C@@H](C(=O)Nc2ccc(F)c(C(F)(F)F)c2)[C@H]2CC[C@@H]1/C2=C\C1CC1 (stereo partly drawn) [Example 257, (1R,2S,3R,4R,7Z)-7-(cyclopropylmethyl-idene)-N-[4-fluoro-3-(trifluoromethyl)phenyl]-3-[5-(3-methanesulfonyl-pyrrolidine-1-carbonyl)-2-methoxybenzamido] bicyclo[2.2.1]heptane-2-carboxamide]

SMILES	EC50
COc1ccc(C(=O)N2C3CCC2COC3)cc1C(=O)N[C@H]1[C@@H](C(=O)Nc2ccc(F)c(C(F)(F)F)c2)[C@H]2CC[C@@H]1/C2=C\C1CC1 [Example 258, (1R,2S,3R, 4R,7Z)-7-(cyclopropyl-methylidene)-N-[4-fluoro-3-(trifluoromethyl)phenyl]-3-(2-methoxy-5-{3-oxa-8-azabicyclo [3.2.1]octane-8-carbonyl}benzamido) bicyclo[2.2.1] heptane-2-carboxamide]	32.9 nM
